The subject of the assay is S. Epidermidis NCIB 11536. Kind of assay: Antibiotic sensitivities of the producer strain (disc). It counts as cell-based. Particulars: 5 μg disc; strain characteristics table.

For `CO[C@@H]1[C@@H](OC(N)=O)[C@@H](O)[C@H](Oc2ccc3c(O)c(NC(=O)c4ccc(O)c(CC=C(C)C)c4)c(=O)oc3c2C)OC1(C)C` [novobiocin], the Novobiocin sensitivity result is recorded as “sensitive”.
